Assay results published in ChEMBL document CHEMBL1955861, “Aminoimidazoles as BACE-1 inhibitors: the challenge to achieve in vivo brain efficacy” (Bioorg Med Chem Lett, 2012).

Columns and labels:
[1] = Dissociation constant, pKa of the compound; format: physicochemical
[2] = Drug uptake in C57BL/6 mouse brain at 300 umol/kg, po administered as single dose 15 mins after GF120918 90 umol/kg, po measured after […] by RPLC-MS/MS analysis; format: ADME, organism-based; conditions: with GF120918 90 umol/kg po, read-out: Drug uptake
[3] = Ratio of drug level in brain to plasma in C57BL/6 mouse at 300 umol/kg, po administered as single dose 15 mins after GF120918 90 umol/kg, po measured after […] by RPLC-MS/MS analysis; format: ADME, organism-based; conditions: with GF120918 90 umol/kg po, read-out: BPR
[4] = Ratio of drug level in brain to plasma in C57BL/6 mouse at 300 umol/kg, po administered as single dose measured after […] by RPLC-MS/MS analysis; format: ADME, organism-based; conditions: read-out: BPR

SMILES | pKa [1] | also measured
COc1cccc(-c2cccc([C@]3(c4ccncc4)N=C(N)N4CC(F)(F)CN=C43)c2)c1F | 5.3 | –
NC1=NC(c2ccncc2)(c2cccc(-c3cncnc3)c2)C2=NCCCN12 (centres undefined) | 7.6 | –
COc1ccc(F)c(-c2cccc(C3(c4ccncc4)N=C(N)N4CC(F)(F)CN=C43)c2)c1 (centres undefined) | 5.9 | –
NC1=NC(c2ccc(OC(F)F)cc2)(c2cccc(OCCCF)c2)C2=NCC(F)(F)CN12 (centres undefined) | 6.5 | –
NC1=N[C@](c2ccc(OC(F)F)cc2)(c2cccc(OCCCF)c2)C2=NCC(F)(F)CN12 | – | concentration at […] [2]: 4 µM; Kp at […] [3]: 2.34; Kp at […] [4]: 0.18

The next lines start with results.

pKa [1] | SMILES | also measured
6.8 | COc1ccc(C2(c3cccc(-c4cncnc4)c3)N=C(N)N3CC(F)(F)CN=C32)cc1 (centres undefined) | –
6.1 | NC1=NC(c2ccc(OC(F)F)cc2)(c2cccc(-c3cncnc3)c2)C2=NCC(F)(F)CN12 (centres undefined) | –
